Where two headings read alike, the source gives them in different places.
Columns and labels:
various cancer cells = various cancer cells in vitro; versus irinotecan; cited from earlier work
[1] = system: c1498 murine AML (Acute Myeloid Leukemia) cells; assay: Survival of FACS-sorted phosphatidylserine-positive c1498 AML cells; assay type: cell-based; conditions: Mus musculus, c1498 cells treated with cytarabine (1 μM) for 24 hrs, estimated from growth rates
Source text: FIG. 1A-FIG. 1C show the survival of phosphatidylserine-expressing AML cells. […] The rectangles indicate the sorted cells. […] About 1000 each of the sorted cells were placed into multi-well plates. When the cells reached sufficient numbers, they were counted at different time points to measure their growth rates. The growth rates were then used to estimate the initial live cell numbers. The following formula was used to calculate the minimal initial live cell numbers: Minimal initial cell number=Total cell population/(growth rate*t)(days to reach the current cell number).
To determine whether cells expression high-level of PS expression on the cell surface are destined to die, the viability of c1498 murine AML (Acute Myeloid Leukemia) cells treated with cytarabine (part of a classical chemotherapy regimen for human AML) was examined. Specifically, whether cell surface PS-expressing acute myelocytic leukemia (AML) cells survived was examined. FACS was used to identify and sort cells with high cell surface PS-expression and the ability to survive was measured. FIG. 1A-FIG. 1B). In FIG. 1A, FACS sorting of untreated c1498 cells (in DMEM with 8% FBS). The rectangles indicate the sorted cells. In FIG. 1B, FACS sorting of c1498 cells treated with cytarabine (1 μM) for 24 hrs). […] When the cells reached sufficient numbers, the cells were counted at different time points to measure growth rates. […]

c1498 AML = assay: Survival of C57BL/6 mice injected with c1498 AML cells; assay type: in vivo; conditions: combination: cytarabine 100 mg/kg i.p. every 12 hrs for 3 times, then Annexin V-Fc i.p. 4 times at 72 hours intervals
Procedure: About 2×10^5 c1498 cells were injected into the tail vein of C57BL/6 mice. At 24 hrs after the injection, the mice were treated with 100 mg/kg cytarabine (injected i.p. every 12 hrs for 3 times). At 24 hrs after the last treatment, Annexin V-Fc was given i.p. 4 times at 72 hours intervals. The mice were then observed and sacrificed until they were moribund. Shown were the survival of different mice after they were treated with different antibody and drug combinations.
Whether Annexin V-IgG1Fc fusion protein can enhance the treatment of c1498 AML in syngeneic mice (C57BL/6) in combination with cytarabine, a commonly used drug for AML treatment, was examined. […] Here, about 2×10^5 c1498 cells were injected into the tail vein of C57BL/6 mice. At 24 hrs after the injection, the mice were treated with 100 mg/kg cytarabine (injected i.p. every 12 hrs for 3 times). At 24 hrs after the last treatment, Annexin V-Fc was given i.p. 4 times at 72 hours intervals. The mice were then observed and sacrificed until they are moribund.

KG1a human AML cell line = assay: Phagocytosis assay with THP1-derived macrophages; assay type: cell-based; conditions: untreated or doxorubicin-treated cells; 2 hrs incubation; versus isotype control (IgG1)
Procedure: THP1 cells transduced with mCherry were differentiated into macrophages following previously established procedures. The macrophages were then incubated with non-treated or doxorubicin-treated KG1a human AML cell line transduced with EGFP in the presence of either isotype control (IgG1) or AnnexinV-IgG1Fc. After 2 hrs of incubation, the macrophages and the KG1a cells they have engulfed were counted.
The ability of THP1-derived macrophages to phagocytose control or doxorubicin-treated […] cells was examined. […] Representative fluorescence images of phagocytosis assay. THP1 cells transduced with mCherry were differentiated into macrophages following previously established procedures. The cells were then incubated with non-treated or doxorubicin-treated KG1a human AML cell line transduced with EGFP in the presence of either isotype control (IgG1) or AnnexinV-IgG1Fc. After 2 hrs of incubation, the macrophages and the KG1a cells they have engulfed were counted (FIG. 2A). Quantitative estimates of phagocytosis of KG1a cells by THP1-derived macrophages, the phagocytic index was calculated as: (Average number of KG1a cells engulfed per macrophage)×(percentage of macrophages which have engulfed KG1a cells)×[…] (FIG. 2B).

[2] = versus doxorubicin; cited from earlier work

## CCc1c2c(nc3ccc(O)cc13)-c1cc3c(c(=O)n1C2)COC(=O)[C@]3(O)CC [SN-38, 7-ethyl-10-hydroxy-camptothecin]
Various cancer cells
  cytotoxic activity relative to irinotecan: up to 1,000 fold

## Nc1ccn([C@@H]2O[C@H](CO)[C@@H](O)[C@@H]2O)c(=O)n1 [cytarabine]
[1]; read-out: proportion of PS+7AAD+ c1498 cells that remained viable and could proliferate
  viability at 1 µM: ~8%
[1]; read-out: proportion of PS+7AAD- c1498 cells that remained viable and could proliferate
  viability at 1 µM: ~25%

## Annexin V-IgG1Fc fusion protein: Annexin V fused to the Fc domain of IgG1; SEQ ID NO:85 is the form with secretion signal
c1498 AML
  median survival of host mice: > 62 days
KG1a human AML cell line
  phagocytosis of AML cells by THP1-derived macrophages (phagocytic index): effectively boosted the phagocytosis

## calicheamicin
[2]
  potency relative to doxorubicin: approximately 4000 times
